Results from PubChem BioAssay (NCI).
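At the GI50, growth is halved. At the TGI there is no net growth.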

Key:
Experiment in all cases: NCI tumour cell line growth inhibition, 384-well format
OVCAR-8 ovarian = test system: OVCAR-8 ovarian
MDA-MB-231 breast = test system: MDA-MB-231 breast
MCF7 breast = test system: MCF7 breast
CAKI-1 renal = test system: CAKI-1 renal
CCRF-CEM leukemia = test system: CCRF-CEM leukemia
HS 578T breast = test system: HS 578T breast
EKVX NSCLC = test system: EKVX NSCLC
MDA-MB-435 melanoma = test system: MDA-MB-435 melanoma
NCI/ADR-RES ovarian = test system: NCI/ADR-RES ovarian
786-0 renal = test system: 786-0 renal
SN12C renal = test system: SN12C renal
SNB-19 CNS = test system: SNB-19 CNS
T-47D breast = test system: T-47D breast
SK-MEL-5 melanoma = test system: SK-MEL-5 melanoma
RPMI-8226 leukemia = test system: RPMI-8226 leukemia
OVCAR-4 ovarian = test system: OVCAR-4 ovarian
SF-268 CNS = test system: SF-268 CNS
NCI-H23 lung = test system: NCI-H23 lung
RXF 393 renal = test system: RXF 393 renal
MDA-MB-468 breast = test system: MDA-MB-468 breast
SF-539 CNS = test system: SF-539 CNS
MOLT-4 leukemia = test system: MOLT-4 leukemia
IGROV1 ovarian = test system: IGROV1 ovarian
UACC-62 melanoma = test system: UACC-62 melanoma
TK-10 renal = test system: TK-10 renal
BT-549 breast = test system: BT-549 breast
HT29 colon = test system: HT29 colon
HOP-92 NSCLC = test system: HOP-92 NSCLC
LOX IMVI melanoma = test system: LOX IMVI melanoma
NCI-H226 lung = test system: NCI-H226 lung
OVCAR-5 ovarian = test system: OVCAR-5 ovarian
UO-31 renal = test system: UO-31 renal
NCI-H460 NSCLC = test system: NCI-H460 NSCLC
KM12 colon = test system: KM12 colon
M14 melanoma = test system: M14 melanoma
A498 renal = test system: A498 renal
UACC-257 melanoma = test system: UACC-257 melanoma
HOP-62 NSCLC = test system: HOP-62 NSCLC
SK-MEL-28 melanoma = test system: SK-MEL-28 melanoma
HCT-15 colon = test system: HCT-15 colon
SW-620 colon = test system: SW-620 colon
ACHN renal = test system: ACHN renal
A549 NSCLC = test system: A549 NSCLC
HCT-116 colon = test system: HCT-116 colon
SF-295 CNS = test system: SF-295 CNS
COLO 205 colon = test system: COLO 205 colon
SK-OV-3 ovarian = test system: SK-OV-3 ovarian
MALME-3M melanoma = test system: MALME-3M melanoma
PC-3 prostate = test system: PC-3 prostate
HCC-2998 colon = test system: HCC-2998 colon
HL-60(TB) leukemia = test system: HL-60(TB) leukemia
NCI-H522 lung = test system: NCI-H522 lung
U251 glioblastoma = test system: U251 glioblastoma
DU-145 prostate = test system: DU-145 prostate
OVCAR-3 ovarian = test system: OVCAR-3 ovarian
NCI-H322M lung = test system: NCI-H322M lung
K-562 leukemia = test system: K-562 leukemia
SNB-75 CNS = test system: SNB-75 CNS

CC[C@H](C)n1cc(C)c2c(C(=O)NCc3c(C)cc(C)[nH]c3=O)cc(-c3ccc(N4CCNCC4)nc3)cc21
GI50 (OVCAR-8 ovarian): 1810 nM | TGI (OVCAR-8 ovarian): 3340 nM | GI50 (MDA-MB-231 breast): 1650 nM | TGI (MDA-MB-231 breast): 3060 nM | GI50 (MCF7 breast): 1520 nM | TGI (MCF7 breast): 2890 nM | GI50 (CAKI-1 renal): 1760 nM | TGI (CAKI-1 renal): 3170 nM | GI50 (CCRF-CEM leukemia): 1530 nM | TGI (CCRF-CEM leukemia): 2870 nM | GI50 (HS 578T breast): 1410 nM | TGI (HS 578T breast): 2710 nM | GI50 (EKVX NSCLC): 1830 nM | TGI (EKVX NSCLC): 3490 nM | GI50 (MDA-MB-435 melanoma): 2070 nM | TGI (MDA-MB-435 melanoma): 3520 nM | GI50 (NCI/ADR-RES ovarian): 17700 nM | TGI (NCI/ADR-RES ovarian): 31600 nM | GI50 ([…]-0 renal): 1710 nM | TGI (786-0 renal): 3100 nM | GI50 (SN12C renal): 1780 nM | TGI (SN12C renal): 3490 nM | GI50 (SNB-19 CNS): 2110 nM | TGI (SNB-19 CNS): 3750 nM | GI50 (T-47D breast): 1470 nM | TGI (T-47D breast): 2820 nM | GI50 (SK-MEL-5 melanoma): 1630 nM | TGI (SK-MEL-5 melanoma): 2990 nM | GI50 (RPMI-8226 leukemia): 1390 nM | TGI (RPMI-8226 leukemia): 2700 nM | GI50 (OVCAR-4 ovarian): 3580 nM | TGI (OVCAR-4 ovarian): 10800 nM | GI50 (SF-268 CNS): 1620 nM | TGI (SF-268 CNS): 2980 nM | GI50 (NCI-H23 lung): 2890 nM | TGI (NCI-H23 lung): 7440 nM | GI50 (RXF 393 renal): 1730 nM | TGI (RXF 393 renal): 3140 nM | GI50 (MDA-MB-468 breast): 1460 nM | TGI (MDA-MB-468 breast): 2790 nM | GI50 (SF-539 CNS): 1600 nM | TGI (SF-539 CNS): 2960 nM | GI50 (MOLT-4 leukemia): 1630 nM | TGI (MOLT-4 leukemia): 2990 nM | GI50 (IGROV1 ovarian): 1540 nM | TGI (IGROV1 ovarian): 3670 nM | GI50 (UACC-62 melanoma): 1570 nM | TGI (UACC-62 melanoma): 2920 nM | GI50 (TK-10 renal): 1910 nM | TGI (TK-10 renal): 3640 nM | GI50 (BT-549 breast): 1670 nM | TGI (BT-549 breast): 3050 nM | GI50 (HT29 colon): 1680 nM | TGI (HT29 colon): 3110 nM | GI50 (HOP-92 NSCLC): 1830 nM | TGI (HOP-92 NSCLC): 3250 nM | GI50 (LOX IMVI melanoma): 1640 nM | TGI (LOX IMVI melanoma): 3020 nM | GI50 (NCI-H226 lung): 3760 nM | TGI (NCI-H226 lung): 14500 nM | GI50 (OVCAR-5 ovarian): 2620 nM | TGI (OVCAR-5 ovarian): 6440 nM | GI50 (UO-31 renal): 13100 nM | TGI (UO-31 renal): 25800 nM | GI50 (NCI-H460 NSCLC): 1830 nM | TGI (NCI-H460 NSCLC): 3240 nM | GI50 (KM12 colon): 1790 nM | TGI (KM12 colon): 3320 nM | GI50 (M14 melanoma): 1750 nM | TGI (M14 melanoma): 3140 nM | GI50 (A498 renal): 1940 nM | TGI (A498 renal): 3430 nM | GI50 (UACC-257 melanoma): 1630 nM | TGI (UACC-257 melanoma): 2990 nM | GI50 (HOP-62 NSCLC): 1640 nM | TGI (HOP-62 NSCLC): 3020 nM | GI50 (SK-MEL-28 melanoma): 2150 nM | TGI (SK-MEL-28 melanoma): 3600 nM | GI50 (HCT-15 colon): 1860 nM | TGI (HCT-15 colon): 3480 nM | GI50 (SW-620 colon): 1740 nM | TGI (SW-620 colon): 3120 nM | GI50 (ACHN renal): 4230 nM | TGI (ACHN renal): 15600 nM | GI50 (A549 NSCLC): 1960 nM | TGI (A549 NSCLC): 3920 nM | GI50 (HCT-116 colon): 1790 nM | TGI (HCT-116 colon): 3230 nM | GI50 (SF-295 CNS): 1870 nM | TGI (SF-295 CNS): 3320 nM | GI50 (COLO 205 colon): 1710 nM | TGI (COLO 205 colon): 3100 nM | GI50 (SK-OV-3 ovarian): 1860 nM | TGI (SK-OV-3 ovarian): 3300 nM | GI50 (MALME-3M melanoma): 1610 nM | TGI (MALME-3M melanoma): 2970 nM | GI50 (PC-3 prostate): 3230 nM | TGI (PC-3 prostate): 8540 nM | GI50 (HCC-2998 colon): 1600 nM | TGI (HCC-2998 colon): 2980 nM | GI50 (HL-60(TB) leukemia): 2030 nM | TGI (HL-60(TB) leukemia): 3470 nM | GI50 (NCI-H522 lung): 1860 nM | TGI (NCI-H522 lung): 3270 nM | GI50 (U251 glioblastoma): 1830 nM | TGI (U251 glioblastoma): 3250 nM | GI50 (DU-145 prostate): 3830 nM | TGI (DU-145 prostate): 12100 nM | GI50 (OVCAR-3 ovarian): 2250 nM | TGI (OVCAR-3 ovarian): 4390 nM | GI50 (NCI-H322M lung): 1960 nM | TGI (NCI-H322M lung): 4070 nM | GI50 (K-562 leukemia): 1480 nM | TGI (K-562 leukemia): 2810 nM | GI50 (SNB-75 CNS): 1350 nM | TGI (SNB-75 CNS): 2650 nM
